Data published in patent publication US20240199605A1, “SMALL MOLECULAR INHIBITORS OF NF-kB INDUCING KINASE” (Janssen Pharmaceutica NV, priority 2019, published 2024).

Key:
[1] = test system: p-IKKα levels in L363 (NIK translocated multiple myeloma) cells; assay: Effect of compounds on p-IKKα levels in L363 cells (AlphaLISA SureFire Ultra); format: cell-based, human; settings: Homo sapiens, L-363, 6 h, BAFF stimulated, MG132, 6 h, average of values, read-out: Assay 2 IC50
Summary of the method: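 Inhibition of p-IKKα (Ser176/180) read by AlphaLISA after 6 h, 37 °C compound exposure (11-point 1:3 series, 0.3% DMSO) of L363 cells pre-incubated overnight ± 250 ng/ml BAFF and plated ± BAFF ± 10 μM MG132. Normalised to BAFF/MG132/DMSO and unstimulated controls; IC50 by sigmoidal fitting, duplicates.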

[2] = molecular target: recombinant human NF-kappaB-inducing kinase (NIK/MAP3K14) (Homo sapiens (Human), UniProt Q99558); assay: Inhibition of auto-phosphorylation of recombinant human NIK/MAP3K14 (AlphaScreen); format: biochemical; settings: NIK auto-phosphorylation, 5 μM ATP, 1 nM NIK, 2 h at 25° C.; average of values
Chain of recombinant human NF-kappaB-inducing kinase (NIK/MAP3K14) (Q99558 whole entry): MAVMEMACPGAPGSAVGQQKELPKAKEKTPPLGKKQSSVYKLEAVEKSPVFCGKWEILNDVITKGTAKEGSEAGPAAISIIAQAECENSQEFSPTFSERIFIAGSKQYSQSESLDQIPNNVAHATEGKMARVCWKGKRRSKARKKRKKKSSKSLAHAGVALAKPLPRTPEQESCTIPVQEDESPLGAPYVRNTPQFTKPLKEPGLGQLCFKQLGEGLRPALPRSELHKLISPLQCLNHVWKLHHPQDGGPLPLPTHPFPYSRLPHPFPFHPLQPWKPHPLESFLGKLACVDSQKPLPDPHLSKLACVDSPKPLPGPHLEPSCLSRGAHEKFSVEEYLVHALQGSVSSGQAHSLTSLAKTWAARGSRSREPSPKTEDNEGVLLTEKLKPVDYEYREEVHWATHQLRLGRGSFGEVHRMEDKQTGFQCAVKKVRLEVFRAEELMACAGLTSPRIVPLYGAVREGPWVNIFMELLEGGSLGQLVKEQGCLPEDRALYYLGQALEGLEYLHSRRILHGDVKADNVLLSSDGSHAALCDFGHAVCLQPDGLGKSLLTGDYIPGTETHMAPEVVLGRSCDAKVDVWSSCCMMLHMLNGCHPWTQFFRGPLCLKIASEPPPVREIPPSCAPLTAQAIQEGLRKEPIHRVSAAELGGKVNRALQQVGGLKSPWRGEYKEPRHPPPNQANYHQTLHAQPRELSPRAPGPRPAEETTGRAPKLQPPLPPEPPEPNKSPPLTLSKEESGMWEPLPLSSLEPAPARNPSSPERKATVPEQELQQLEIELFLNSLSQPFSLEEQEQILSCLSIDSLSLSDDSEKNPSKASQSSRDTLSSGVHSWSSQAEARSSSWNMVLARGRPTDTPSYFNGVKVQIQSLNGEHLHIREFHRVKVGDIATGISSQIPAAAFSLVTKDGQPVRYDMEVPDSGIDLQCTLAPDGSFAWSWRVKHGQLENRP
Summary of the method: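 GST-tagged NIK (1 nM) auto-phosphorylated with 5 μM ATP for 2 h at 25° C. in 50 mM Tris pH 7.5, 5 mM MgCl2, 1 mM EGTA, 1 mM DTT, 0.1 mM Na3VO4, 0.01% Tween 20 (0.7% DMSO). Detected by AlphaScreen via anti-phospho-IKK Ser176/180 antibody; IC50 from sigmoidal fit of % inhibition versus log concentration.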

Structure (SMILES)	IC50 [1] [nM]	IC50 [2] [nM]
CNC(=O)C1CN(c2ncnc3ccc(-c4cccc(C#C[C@]5(O)CCN(C)C5=O)c4)nc23)C1 [Example 246, (R)-1-(6-(3-((3-Hydroxy-1-methyl-2-oxopyrrolidin-3-yl)ethynyl)phenyl)pyrido[3,2-d]pyrimidin-4-yl)-N-methylazetidine-3-carboxamide]	3790	23
Cc1nc(N)c2nc(-c3cccc(C#C[C@]4(O)C(=O)N(C)[C@H]5C[C@H]54)c3)ccc2n1 [Example 274, (1S,4S,5R)-4-((3-(4-Amino-2-methylpyrido[3,2-d]pyrimidin-6-yl)phenyl)ethynyl)-4-hydroxy-2-methyl-2-azabicyclo[3.1.0]hexan-3-one]	> 5000	1930
C=Cc1cc(-c2cccc(C#C[C@]3(O)CCN(C)C3=O)c2)nc2c(N)ncnc12 [Example 314, (R)-3-((3-(4-Amino-8-vinylpyrido[3,2-d]pyrimidin-6-yl)phenyl)ethynyl)-3-hydroxy-1-methylpyrrolidin-2-one]	14	2.9
COc1ccc(C#C[C@]2(O)CCN(C)C2=O)cc1-c1ccc2ncnc(N)c2n1 [Example 139, (R)-3-((3-(4-Aminopyrido[3,2-d]pyrimidin-6-yl)-4-methoxyphenyl)ethynyl)-3-hydroxy-1-methylpyrrolidin-2-one]	22	2.9
Cc1ncnc2ccc(-c3cccc(C#C[C@]4(O)CCN(C)C4=O)c3)nc12 [Example 23, (R)-3-Hydroxy-1-methyl-3-((3-(4-methylpyrido[3,2-d]pyrimidin-6-yl)phenyl)ethynyl)pyrrolidin-2-one]	260	10
CO[C@@]1(C#Cc2cccc(-c3ccc4ncnc(N)c4n3)c2)CCN(C)C1=O [Example 207, (R)-3-((3-(4-Aminopyrido[3,2-d]pyrimidin-6-yl)phenyl)ethynyl)-3-methoxy-1-methylpyrrolidin-2-one]	> 5000	180
CN1CC[C@@](O)(C#Cc2cccc(-c3ccc4ncnc(N(C)C)c4n3)c2)C1=O [Example 25, (R)-3-((3-(4-(Dimethylamino)pyrido[3,2-d]pyrimidin-6-yl)phenyl)ethynyl)-3-hydroxy-1-methylpyrrolidin-2-one]	180	2.1
CN1CC[C@@](O)(C#Cc2cccc(-c3ccc4ncnc(NCC#N)c4n3)c2)C1=O [Example 240, (R)-2-((6-(3-((3-Hydroxy-1-methyl-2-oxopyrrolidin-3-yl)ethynyl)phenyl)pyrido[3,2-d]pyrimidin-4-yl)amino)acetonitrile]	570	21
Cc1ncc(C#N)c2ccc(-c3cccc(C#C[C@]4(O)CCN(C)C4=O)c3)nc12 [Example 251, (R)-2-(3-((3-Hydroxy-1-methyl-2-oxopyrrolidin-3-yl)ethynyl)phenyl)-8-methyl-1,7-naphthyridine-5-carbonitrile]	560	86
CN1CC[C@@](O)(C#Cc2cccc(-c3cc(-c4ccccc4)c4ncnc(N)c4n3)c2)C1=O [Example 310, (R)-3-((3-(4-Amino-8-phenylpyrido[3,2-d]pyrimidin-6-yl)phenyl)ethynyl)-3-hydroxy-1-methylpyrrolidin-2-one]	13	0.7
CN1CC[C@@](O)(C#Cc2cccc(-c3ccc4ncnc(C#N)c4n3)c2)C1=O [Example 279, (R)-6-(3-((3-Hydroxy-1-methyl-2-oxopyrrolidin-3-yl)ethynyl)phenyl)pyrido[3,2-d]pyrimidine-4-carbonitrile]	> 5000	1510
CN1CC[C@@](O)(C#Cc2cccc(-c3ccc4nc(O)nc(N)c4n3)c2)C1=O [Example 211, (R)-3-((3-(4-Amino-2-hydroxypyrido[3,2-d]pyrimidin-6-yl)phenyl)ethynyl)-3-hydroxy-1-methylpyrrolidin-2-one]	> 5000	2.2
Cc1ccc(C#C[C@@](C)(O)c2nccs2)cc1-c1ccc2ccnc(N)c2c1 [Example 68, (R)-4-[3-(1-Amino-7-isoquinolyl)-4-methyl-phenyl]-2-thiazol-2-yl-but-3-yn-2-ol]	> 5000	55

More lines, now with the values ahead:

IC50 [1] [nM]	IC50 [2] [nM]	Structure (SMILES)
17	≤ 0.5	[2H]c1nc(N)c2nc(-c3cc(C#C[C@]4(O)CCN(C)C4=O)ccc3C)ccc2n1 [Example 149, (R)-3-((3-(4-Aminopyrido[3,2-d]pyrimidin-6-yl-2-d)-4-methylphenyl)ethynyl)-3-hydroxy-1-methylpyrrolidin-2-one]
930	56	CN1CC[C@@](O)(C#Cc2cccc(-c3ccc4ncnc(NCC(F)F)c4n3)c2)C1=O [Example 241, (R)-3-((3-(4-((2,2-Difluoroethyl)amino)pyrido[3,2-d]pyrimidin-6-yl)phenyl)ethynyl)-3-hydroxy-1-methylpyrrolidin-2-one]
52	≤ 0.5	Cc1cc([C@](C)(O)C#Cc2cccc(-c3ncc4ccnc(N)c4n3)c2)no1 [Example 34, (R)-4-[3-(8-Aminopyrido[3,4-d]pyrimidin-2-yl)phenyl]-2-(5-methylisoxazol-3-yl)but-3-yn-2-ol]
1560	230	Cc1nc(-c2cccc(C#C[C@@]3(O)CCN(C)C3=O)c2)nc2c(N)ncnc12 [Example 5, (S)-3-((3-(8-Amino-4-methylpyrimido[5,4-d]pyrimidin-2-yl)phenyl)ethynyl)-3-hydroxy-1-methylpyrrolidin-2-one]
210	5.7	CN1CC[C@@](O)(C#Cc2cccc(-c3ccc4ncnc(N5CC(F)(F)C5)c4n3)c2)C1=O [Example 232, (R)-3-((3-(4-(3,3-Difluoroazetidin-1-yl)pyrido[3,2-d]pyrimidin-6-yl)phenyl)ethynyl)-3-hydroxy-1-methylpyrrolidin-2-one]
42	0.7	CN1CC[C@@](O)(C#Cc2cccc(-c3ncc4c(-c5ccccc5)cnc(N)c4n3)c2)C1=O [Example 121, (R)-3-((3-(8-Amino-5-phenylpyrido[3,4-d]pyrimidin-2-yl)phenyl)ethynyl)-3-hydroxy-1-methylpyrrolidin-2-one]
370	1.4	Cc1nc(N)c2nc(-c3cccc(C#C[C@]4(O)CCN(C)C4=O)c3)cnc2n1 [Example 148, (R)-3-[2-[3-(4-Amino-2-methyl-pteridin-6-yl)phenyl]ethynyl]-3-hydroxy-1-methyl-pyrrolidin-2-one]
205	5.6	[2H]c1nc(N)c2nc(-c3cccc(C#C[C@]4(O)CCN(C)C4=O)c3)cc(CN)c2n1 [Example 282, (R)-3-((3-(4-Amino-8-(aminomethyl)pyrido[3,2-d]pyrimidin-6-yl-2-d)phenyl)ethynyl)-3-hydroxy-1-methylpyrrolidin-2-one]
69	1.5	CN1CC[C@@](O)(C#Cc2cccc(-c3ccc4ncnc(N5CC(F)C5)c4n3)c2)C1=O [Example 239, (R)-3-((3-(4-(3-Fluoroazetidin-1-yl)pyrido[3,2-d]pyrimidin-6-yl)phenyl)ethynyl)-3-hydroxy-1-methylpyrrolidin-2-one]
450	210	CC(=O)Nc1nc(C)nc2ccc(-c3cccc(C#C[C@]4(O)CCN(C)C4=O)c3)nc12 [Example 258, (R)—N-(6-(3-((3-Hydroxy-1-methyl-2-oxopyrrolidin-3-yl)ethynyl)phenyl)-2-methylpyrido[3,2-d]pyrimidin-4-yl)acetamide]
5.4	0.8	Cc1nc(-c2cccc(C#C[C@]3(O)CCN(C)C3=O)c2)nc2c(N)ncnc12 [Example 4, (R)-3-((3-(8-Amino-4-methylpyrimido[5,4-d]pyrimidin-2-yl)phenyl)ethynyl)-3-hydroxy-1-methylpyrrolidin-2-one]
66	5.1	COc1ccc(C#C[C@]2(O)CCN(C)C2=O)cc1-c1ncc2ncnc(N)c2n1 [Example 177, (R)-3-((3-(8-Aminopyrimido[5,4-d]pyrimidin-2-yl)-4-methoxyphenyl)ethynyl)-3-hydroxy-1-methylpyrrolidin-2-one]
550	23	CN1CC[C@](O)(C#Cc2cccc(-c3ncc4cc[nH]c(=O)c4n3)c2)C1=O [Example 31, (S)-2-[3-[2-(3-Hydroxy-1-methyl-2-oxo-pyrrolidin-3-yl)ethynyl]phenyl]-7H-pyrido[3,4-d]pyrimidin-8-one]
130	1.3	CN1CC[C@@](O)(C#Cc2cccc(N3CCc4ncnc(N)c4C3)c2)C1=O [Example 159, (R)-3-((3-(4-Amino-7,8-dihydropyrido[4,3-d]pyrimidin-6(5H)-yl)phenyl)ethynyl)-3-hydroxy-1-methylpyrrolidin-2-one]
> 5000	420	CN1CC[C@@](O)(C#Cc2cccc(-c3nc4c(N)ncnc4n3C)c2)C1=O [Example 143, (R)-3-((3-(6-Amino-9-methyl-9H-purin-8-yl)phenyl)ethynyl)-3-hydroxy-1-methylpyrrolidin-2-one]
720	45	Cc1nccc2ccc(-c3cccc(C#C[C@]4(O)CCN(C)C4=O)c3)nc12 [Example 280, (R)-3-Hydroxy-1-methyl-3-((3-(8-methyl-1,7-naphthyridin-2-yl)phenyl)ethynyl)pyrrolidin-2-one]
150	1	Cc1ccc(C#C[C@@](C)(O)c2nccs2)cc1-c1ncc2ccnc(N)c2n1 [Example 69, (R)-4-(3-(8-Aminopyrido[3,4-d]pyrimidin-2-yl)-4-methylphenyl)-2-(thiazol-2-yl)but-3-yn-2-ol]
